We go through five compounds from ChEMBL document CHEMBL1201862, “PubChem BioAssay data set” (2004).

Values joined by “and” are separate entries in the source; they are usually repeats but may differ in a detail not shown here. Identical values can stand only once. Active and inactive are the calls of the source.

For assay [1], the target named is Glycogen synthase kinase-3 beta (Homo sapiens, UniProt P49841). Description: Inhibition of Human GSK-3 beta Activity Measured in Biochemical System Using Microfluidics - 2063-05_Inhibitor_Dose_DryPowder_Activity. [Related pubchem assays (depositor defined):AID2709].
In assay [2] the target is Glycogen synthase kinase-3 alpha (Homo sapiens, UniProt P49840). The experiment in a line: Inhibition of Human GSK-3 alpha Activity Measured in Biochemical System Using Microfluidics - 2063-06_Inhibitor_Dose_DryPowder_Activity. [Related pubchem assays (depositor defined):AID2709].
A further assay concerns Vero. The experiment in a line: viability of Vero cells under compound – cytotoxicity control for flavivirus capping enzyme inhibitors (AID 588742). The note with it: Chlorocebus sabaeus. Type of assay: functional.
Another assay has as its target Genome polyprotein (dengue virus type 2, UniProt P29990). Description: flavivirus cap methylation enzyme inhibition – biochemical, confirmation dose response, primary screen (AID 588689). In kind it is functional.
In assay [3] the target is T1, SUMO-activating enzyme (Homo sapiens, UniProt Q9UBT2). Description: blockers of SAE1/SAE2–UBC9 SUMO transfer – biochemical, HTRF, uHTS, primary screen (AID 2006). Type of assay: protein-complex assay. (In TR-FRET formats the signal depends on donor and acceptor labels being close together.)
Assay [4] has as its system Streptococcus sp. 'group A'. Description: Streptococcus pyogenes SK(-)GAS viability under kanamycin – luminescence, BacTiterGlo, confirmation, counter-screen for streptokinase expression inhibitor project, dose response (AID 1900). Type of assay: functional, organism-based. (In general: The purpose of a counterscreen is to sort out artefacts and off-target activity.)
In assay [5] the target is 72 kDa type IV collagenase (Homo sapiens, UniProt P08253). The experiment in a line: Dose Response validation of uHTS RPN11 inhibitor hits using a MMP-2 Fluorescence assay. In kind it is functional.
The target in the next assay is Prothrombin (Bos taurus, UniProt P00735). The experiment in a line: thrombin protease inhibitors – biochemical, fluorescence polarization, uHTS hits, dose response (AID 602369). In kind it is functional. A general note: Fluorescence polarisation rises when a labelled molecule tumbles more slowly, as on binding a larger partner.
For another assay, the target named is T2, Streptokinase A (Streptococcus pyogenes serotype M1, UniProt P10520).
T2 sequence (P10520 whole entry): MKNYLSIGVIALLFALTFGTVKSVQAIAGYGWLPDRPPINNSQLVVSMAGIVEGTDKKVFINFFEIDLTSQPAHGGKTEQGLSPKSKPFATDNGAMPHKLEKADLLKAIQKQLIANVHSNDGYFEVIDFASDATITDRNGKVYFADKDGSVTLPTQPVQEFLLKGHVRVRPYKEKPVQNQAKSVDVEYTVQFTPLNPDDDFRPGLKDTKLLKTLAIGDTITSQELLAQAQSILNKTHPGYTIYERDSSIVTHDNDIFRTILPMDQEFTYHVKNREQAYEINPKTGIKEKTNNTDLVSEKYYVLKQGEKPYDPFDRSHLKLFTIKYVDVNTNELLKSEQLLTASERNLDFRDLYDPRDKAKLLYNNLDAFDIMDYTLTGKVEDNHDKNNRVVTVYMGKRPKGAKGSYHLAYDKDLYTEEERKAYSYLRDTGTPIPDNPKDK
Description: viability-normalized secreted streptokinase activity reduction – plasminogen activation absorbance, OD405, dose response (AID 1914).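 Also: secreted streptokinase activity via plasminogen activation per viability signal from cell pellet.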 In kind it is functional, Streptococcus pyogenes M1 GAS.

The target in assay [6] is T1, SUMO-activating enzyme. Description: blockers of UBC9-mediated SUMO conjugation – biochemical, AlphaScreen, SUMOylation inhibitor project, confirmation (AID 2018). In kind it is functional.
In assay [7] the target is 26S proteasome non-ATPase regulatory subunit 14 (Homo sapiens, UniProt O00487). The experiment in a line: inhibition of proteasome subunit RPN11 – biochemical, fluorescence polarization, uHTS hits, confirmation (AID 602368). In kind it is functional.
The next assay deals with Streptococcus. The experiment in a line: GAS UMAA2166 growth inhibition – luminescence, BacTiterGlo, counter-screen for streptokinase expression inhibitor project, dose response (AID 1915).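 Also: potency for reduction of bacterial viability or growth.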 Type of assay: functional, organism-based.
For assay [8], the target named is T3, Small ubiquitin-related modifier 1 (Homo sapiens, UniProt P63165). Description: SUMO1 protein-protein binding blockers, potency – biochemical, FRET, dose response (AID 624383). Type of assay: functional. The note with it: read-out: IC50_Mean.
Assay [9] concerns the target T3, Small ubiquitin-related modifier 1. The experiment in a line: SUMO1 protein interaction blockers, potency – biochemical, fluorescence polarization, uHTS hits, dose response (AID 624382). The note with it: read-out: IC50_Mean. In kind it is functional.
Another assay has as its system INS1. The experiment in a line: INS-1E survival protection against cytokine death – cell-based, luminescence, retest, dose response (AID 449756).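 Also: cell death triggered by IL-1 beta plus TNF-alpha plus IFN-gamma mixture; protective hits raise ATP signal compared with cytokine alone wells.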 Type of assay: functional. The note with it: Rattus norvegicus.
A short description of assay [10]: cells. Type of assay: functional, cell-based.
Assay [11] can be described thus: Luminescence Cell-Based Dose Retest to Confirm Inhibitors of Cancer Stem Cells. [Related pubchem assays (depositor defined):AID2717, AID2721]. In kind it is functional. The settings on record: Homo sapiens.
Assay [12] is described as follows: decrease of insulin promoter-GFP reporter – imaging, high-content screening, mouse beta cells (AID 1628). The note with it: MIN6. In kind it is functional.
Assay [13] can be described thus: alpha-synuclein stem-loop luciferase translation blockers – H4 neuroglioma cells, luminescence, confirmation (AID 1988). Type of assay: functional, cell-based.
Assay [14] can be described thus: Luminescence Cell-Based Dose Response HTS to Identify Inhibitors of 5'UTR Stem-Loop Driven Prion Protein mRNA Translation in H4 Neuroglioblastoma Cells. [Related pubchem assays: 1827 (Project Summary), 1813 (Primary HTS)]. Type of assay: functional.
The nature of assay [15]: luciferase reporter signal suppression in cells – H4 neuroglioma cells, luminescence, dose response (AID 1990). In kind it is functional, cell-based.
Assay [16] can be described thus: MIN6 cell viability loss – mouse insulinoma, cytotoxicity control, dose response (AID 2122).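 Also: confirmatory high-throughput counterscreen run to flag cytotoxic compounds.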 Type of assay: functional.
For the next assay, the system named is HEK293. The experiment in a line: EBV LMP1 TES2 canonical NF-kB signalling blockers – cell-based, HEK293, luciferase, cherry-pick, dose response (AID 588343). Type of assay: functional. The settings on record: Homo sapiens.
For assay [17], the target named is Latent membrane protein 1 (Human herpesvirus 4 (strain B95-8), UniProt P03230). Description: LMP1 TES1 pathway selectivity over dsRED control – imaging, HEK293T, dual-color eGFP/dsRED, cherry-picks, selectivity assay for LMP1 NF-kB inhibitor project, dose response (AID 588398). Type of assay: functional, cell-based.
Assay [18] is described as follows: cells. Type of assay: functional, cell-based. The source holds these as a separate data set.
The target in the next assay is Cytochrome P450 2C9 (Homo sapiens, UniProt P11712).
Assay [19] has as its target Dual specificity tyrosine-phosphorylation-regulated kinase 1A (Rattus norvegicus, UniProt Q63470). Type of assay: biochemical, Homo sapiens.
In assay [20] the target is Aryl hydrocarbon receptor (Homo sapiens, UniProt P35869). The settings on record: Potency.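 Also: confirmatory quantitative high-throughput screen measuring activation of the AhR signaling pathway.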
Assay [21] deals with T4, Rac GTPase-activating protein 1 (Homo sapiens, UniProt Q9H0H5).
T4 sequence (Q9H0H5 whole entry): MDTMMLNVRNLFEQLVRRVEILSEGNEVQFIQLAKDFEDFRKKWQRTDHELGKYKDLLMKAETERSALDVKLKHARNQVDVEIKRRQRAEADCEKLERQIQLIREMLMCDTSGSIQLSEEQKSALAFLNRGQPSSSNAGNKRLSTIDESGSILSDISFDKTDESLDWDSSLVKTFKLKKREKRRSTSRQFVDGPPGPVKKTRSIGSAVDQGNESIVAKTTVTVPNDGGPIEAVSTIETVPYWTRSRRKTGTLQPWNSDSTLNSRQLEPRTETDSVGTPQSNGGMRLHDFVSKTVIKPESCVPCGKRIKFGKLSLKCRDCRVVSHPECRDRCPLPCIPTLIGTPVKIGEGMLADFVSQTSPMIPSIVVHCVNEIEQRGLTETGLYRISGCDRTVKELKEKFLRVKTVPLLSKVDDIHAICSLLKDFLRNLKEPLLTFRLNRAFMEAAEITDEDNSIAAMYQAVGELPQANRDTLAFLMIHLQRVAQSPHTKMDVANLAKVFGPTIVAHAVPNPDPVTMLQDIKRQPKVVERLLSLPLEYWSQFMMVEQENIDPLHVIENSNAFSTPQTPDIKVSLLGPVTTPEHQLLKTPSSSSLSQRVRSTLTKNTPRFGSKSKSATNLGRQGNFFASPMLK
Description: blockers of MgcRacGAP-driven Rac1 GTP hydrolysis – biochemical, ADP Hunter fluorescence, primary and confirmatory, confirmation (AID 624330). In kind it is functional.

In assay [22] the target is T5, Cytochrome P450 2C19 (Homo sapiens, UniProt P33261). Description: Cytochrome panel assay with activity outcomes. Panel member name: p450-cyp2c19 Compounds with AC50 equal or less than 10 uM are considered active. Type of assay: functional. The settings on record: read-out: AC50.
Assay [23] has as its target T6, Carboxy-terminal domain RNA polymerase II polypeptide A small phosphatase 1 (Homo sapiens, UniProt Q9GZU7).
T6 sequence (Q9GZU7 whole entry): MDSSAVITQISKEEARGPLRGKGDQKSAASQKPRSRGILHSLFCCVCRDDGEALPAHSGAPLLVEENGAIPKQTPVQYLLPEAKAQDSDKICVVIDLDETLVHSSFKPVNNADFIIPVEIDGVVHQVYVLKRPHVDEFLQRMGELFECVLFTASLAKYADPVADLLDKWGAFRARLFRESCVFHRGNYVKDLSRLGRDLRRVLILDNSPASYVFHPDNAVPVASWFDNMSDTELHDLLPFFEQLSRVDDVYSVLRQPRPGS
The experiment in a line: CTDSP1 inhibitors, concentration-response, biochemical, absorbance readout, ultra-high-throughput screen actives (AID 540297). Type of assay: functional.

Assay [24] has as its target T5, Cytochrome P450 2C19. Description: qHTS Assay for Inhibitors and Substrates of Cytochrome P450 2C19. [Related pubchem assays: 410 ]. In kind it is ADME. The note with it: read-out: Potency.
Assay [25] deals with Voltage-gated inwardly rectifying potassium channel KCNH2 (Homo sapiens, UniProt Q12809). The settings on record: Potency.
Sequence of Voltage-gated inwardly rectifying potassium channel KCNH2 (Q12809 whole entry): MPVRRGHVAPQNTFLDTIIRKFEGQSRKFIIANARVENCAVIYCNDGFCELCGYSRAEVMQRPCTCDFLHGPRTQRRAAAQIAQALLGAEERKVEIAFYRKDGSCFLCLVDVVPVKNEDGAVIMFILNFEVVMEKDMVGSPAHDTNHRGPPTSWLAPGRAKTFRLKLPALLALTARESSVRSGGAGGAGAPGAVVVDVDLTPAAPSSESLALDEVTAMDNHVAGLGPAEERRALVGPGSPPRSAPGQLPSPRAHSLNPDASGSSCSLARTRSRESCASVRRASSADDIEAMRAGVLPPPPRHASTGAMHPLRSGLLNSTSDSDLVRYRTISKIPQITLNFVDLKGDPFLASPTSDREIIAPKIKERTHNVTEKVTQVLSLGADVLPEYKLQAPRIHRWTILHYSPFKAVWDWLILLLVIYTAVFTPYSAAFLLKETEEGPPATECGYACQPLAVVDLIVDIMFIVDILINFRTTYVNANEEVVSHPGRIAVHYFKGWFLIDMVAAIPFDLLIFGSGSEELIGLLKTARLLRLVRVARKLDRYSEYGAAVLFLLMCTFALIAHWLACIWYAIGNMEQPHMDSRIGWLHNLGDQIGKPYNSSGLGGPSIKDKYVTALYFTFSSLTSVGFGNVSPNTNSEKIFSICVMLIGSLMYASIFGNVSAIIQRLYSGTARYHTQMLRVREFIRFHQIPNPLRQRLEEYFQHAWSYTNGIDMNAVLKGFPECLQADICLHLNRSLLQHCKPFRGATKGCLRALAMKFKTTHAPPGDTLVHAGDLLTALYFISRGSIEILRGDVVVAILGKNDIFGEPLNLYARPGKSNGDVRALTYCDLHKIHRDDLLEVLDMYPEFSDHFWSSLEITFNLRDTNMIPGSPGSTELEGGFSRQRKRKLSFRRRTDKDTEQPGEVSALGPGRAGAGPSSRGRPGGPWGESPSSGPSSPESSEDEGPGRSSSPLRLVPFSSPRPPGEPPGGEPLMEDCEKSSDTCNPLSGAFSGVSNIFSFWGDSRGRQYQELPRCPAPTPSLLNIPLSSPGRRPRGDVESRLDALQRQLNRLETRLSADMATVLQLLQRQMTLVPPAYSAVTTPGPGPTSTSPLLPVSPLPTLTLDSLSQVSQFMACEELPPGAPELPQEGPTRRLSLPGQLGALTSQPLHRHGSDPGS

Sequence of Aryl hydrocarbon receptor (P35869 whole entry): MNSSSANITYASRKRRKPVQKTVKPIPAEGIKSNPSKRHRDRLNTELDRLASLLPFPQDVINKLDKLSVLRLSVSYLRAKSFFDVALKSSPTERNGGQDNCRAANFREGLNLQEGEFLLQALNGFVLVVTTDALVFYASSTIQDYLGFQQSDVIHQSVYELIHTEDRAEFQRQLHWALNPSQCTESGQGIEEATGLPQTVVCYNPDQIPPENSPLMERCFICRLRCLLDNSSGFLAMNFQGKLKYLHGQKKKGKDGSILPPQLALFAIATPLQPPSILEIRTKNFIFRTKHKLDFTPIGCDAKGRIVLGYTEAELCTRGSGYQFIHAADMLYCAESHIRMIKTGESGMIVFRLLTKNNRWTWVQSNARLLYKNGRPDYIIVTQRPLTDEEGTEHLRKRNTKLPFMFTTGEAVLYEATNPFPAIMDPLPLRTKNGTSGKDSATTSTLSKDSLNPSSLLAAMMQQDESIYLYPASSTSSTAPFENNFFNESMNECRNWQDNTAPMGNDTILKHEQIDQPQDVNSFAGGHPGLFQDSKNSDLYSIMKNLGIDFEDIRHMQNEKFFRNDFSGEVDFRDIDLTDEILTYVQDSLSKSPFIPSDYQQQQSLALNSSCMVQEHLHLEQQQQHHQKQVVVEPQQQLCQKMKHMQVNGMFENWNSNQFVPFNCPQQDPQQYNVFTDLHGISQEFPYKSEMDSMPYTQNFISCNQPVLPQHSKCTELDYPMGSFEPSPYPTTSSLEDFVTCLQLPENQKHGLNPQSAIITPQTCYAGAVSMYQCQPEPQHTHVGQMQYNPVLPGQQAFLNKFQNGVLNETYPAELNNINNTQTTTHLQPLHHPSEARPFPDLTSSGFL
T5 sequence (P33261 whole entry, the tested form may be a part): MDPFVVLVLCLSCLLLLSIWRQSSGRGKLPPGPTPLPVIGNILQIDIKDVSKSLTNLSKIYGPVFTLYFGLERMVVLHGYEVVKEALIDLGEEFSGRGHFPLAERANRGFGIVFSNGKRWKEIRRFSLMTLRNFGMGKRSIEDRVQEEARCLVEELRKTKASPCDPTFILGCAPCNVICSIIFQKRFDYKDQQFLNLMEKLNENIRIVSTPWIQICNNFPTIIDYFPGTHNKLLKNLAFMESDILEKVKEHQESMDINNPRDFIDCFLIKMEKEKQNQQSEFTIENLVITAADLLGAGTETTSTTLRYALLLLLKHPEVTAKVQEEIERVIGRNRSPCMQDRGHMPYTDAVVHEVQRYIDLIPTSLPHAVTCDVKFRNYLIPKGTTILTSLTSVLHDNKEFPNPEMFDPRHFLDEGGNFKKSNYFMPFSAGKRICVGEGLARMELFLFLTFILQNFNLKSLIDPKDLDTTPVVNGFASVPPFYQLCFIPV
T1 sequence (Q9UBE0 whole entry): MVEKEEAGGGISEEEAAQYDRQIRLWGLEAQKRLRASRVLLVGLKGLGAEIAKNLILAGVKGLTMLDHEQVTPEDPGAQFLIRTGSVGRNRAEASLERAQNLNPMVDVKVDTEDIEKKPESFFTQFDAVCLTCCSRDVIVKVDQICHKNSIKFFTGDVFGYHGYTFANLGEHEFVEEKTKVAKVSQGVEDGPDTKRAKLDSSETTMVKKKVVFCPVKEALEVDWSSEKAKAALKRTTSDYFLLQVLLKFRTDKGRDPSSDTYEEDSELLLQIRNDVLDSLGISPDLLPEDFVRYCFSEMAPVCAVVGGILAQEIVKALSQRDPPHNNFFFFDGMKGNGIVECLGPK
T1 sequence (Q9UBT2 whole entry): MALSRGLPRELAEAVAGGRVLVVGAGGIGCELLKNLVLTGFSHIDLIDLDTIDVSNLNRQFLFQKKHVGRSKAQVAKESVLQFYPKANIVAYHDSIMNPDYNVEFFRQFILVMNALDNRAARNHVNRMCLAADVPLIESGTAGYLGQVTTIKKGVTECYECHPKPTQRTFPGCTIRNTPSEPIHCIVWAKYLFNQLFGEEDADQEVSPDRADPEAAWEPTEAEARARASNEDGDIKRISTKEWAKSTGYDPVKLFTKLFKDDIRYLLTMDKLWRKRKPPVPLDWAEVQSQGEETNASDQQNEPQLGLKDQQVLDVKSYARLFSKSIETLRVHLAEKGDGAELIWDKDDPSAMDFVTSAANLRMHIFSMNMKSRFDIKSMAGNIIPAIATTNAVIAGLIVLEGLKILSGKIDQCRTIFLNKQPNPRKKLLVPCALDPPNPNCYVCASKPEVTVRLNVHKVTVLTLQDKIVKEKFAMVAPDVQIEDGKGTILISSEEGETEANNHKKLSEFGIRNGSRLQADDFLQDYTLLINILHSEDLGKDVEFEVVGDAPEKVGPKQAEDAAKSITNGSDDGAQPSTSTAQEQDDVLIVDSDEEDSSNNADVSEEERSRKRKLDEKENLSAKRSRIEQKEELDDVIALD
T3 sequence (P63165 whole entry): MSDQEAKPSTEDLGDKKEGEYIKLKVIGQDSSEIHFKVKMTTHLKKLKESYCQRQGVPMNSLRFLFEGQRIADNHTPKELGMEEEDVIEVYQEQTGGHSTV
Sequence of 26S proteasome non-ATPase regulatory subunit 14 (O00487 whole entry): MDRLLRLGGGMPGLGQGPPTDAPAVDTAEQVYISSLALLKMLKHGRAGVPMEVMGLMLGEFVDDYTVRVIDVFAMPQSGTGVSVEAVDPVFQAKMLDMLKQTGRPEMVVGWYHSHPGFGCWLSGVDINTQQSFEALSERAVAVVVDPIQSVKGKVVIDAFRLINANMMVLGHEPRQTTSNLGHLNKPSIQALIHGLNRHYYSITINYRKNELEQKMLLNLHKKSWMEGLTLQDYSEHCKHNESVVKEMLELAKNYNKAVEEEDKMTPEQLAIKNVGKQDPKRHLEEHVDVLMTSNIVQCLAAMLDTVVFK
Sequence of 72 kDa type IV collagenase (P08253 whole entry): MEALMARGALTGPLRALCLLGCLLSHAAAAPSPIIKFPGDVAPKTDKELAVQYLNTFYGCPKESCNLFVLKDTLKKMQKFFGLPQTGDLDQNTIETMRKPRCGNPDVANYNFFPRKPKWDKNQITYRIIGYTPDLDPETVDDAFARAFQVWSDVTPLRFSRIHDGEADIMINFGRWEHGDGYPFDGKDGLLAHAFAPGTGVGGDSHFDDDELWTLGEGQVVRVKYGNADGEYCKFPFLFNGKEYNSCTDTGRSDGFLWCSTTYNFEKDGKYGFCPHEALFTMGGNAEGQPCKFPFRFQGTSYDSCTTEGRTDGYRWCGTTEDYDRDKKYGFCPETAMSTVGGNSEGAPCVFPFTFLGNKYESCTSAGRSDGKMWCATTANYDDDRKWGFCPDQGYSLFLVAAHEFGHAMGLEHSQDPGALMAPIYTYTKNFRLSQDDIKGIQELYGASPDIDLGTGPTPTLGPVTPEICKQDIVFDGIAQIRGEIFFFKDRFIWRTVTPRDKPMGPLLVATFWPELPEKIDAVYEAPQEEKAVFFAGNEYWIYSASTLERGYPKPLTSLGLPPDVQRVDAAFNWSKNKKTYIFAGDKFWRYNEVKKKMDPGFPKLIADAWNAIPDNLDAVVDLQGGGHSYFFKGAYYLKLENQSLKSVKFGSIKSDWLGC
Sequence of Glycogen synthase kinase-3 beta (P49841 whole entry): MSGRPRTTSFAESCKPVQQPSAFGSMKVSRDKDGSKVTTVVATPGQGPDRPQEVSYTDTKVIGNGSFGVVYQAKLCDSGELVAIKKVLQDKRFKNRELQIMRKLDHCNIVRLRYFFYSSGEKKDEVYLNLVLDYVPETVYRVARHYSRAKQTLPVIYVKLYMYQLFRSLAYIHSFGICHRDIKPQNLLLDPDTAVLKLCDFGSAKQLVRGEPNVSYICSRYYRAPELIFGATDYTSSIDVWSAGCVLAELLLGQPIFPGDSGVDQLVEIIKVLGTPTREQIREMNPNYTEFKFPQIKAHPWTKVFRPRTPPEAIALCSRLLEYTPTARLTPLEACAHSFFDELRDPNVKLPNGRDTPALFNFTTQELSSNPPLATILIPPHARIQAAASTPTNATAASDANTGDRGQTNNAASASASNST

Consider `COc1ccc2nc(NC(=O)CCNC(=O)c3ccccc3Cl)sc2c1`, for which the AC50 in assay [1] was 1.53 µM (active); in assay [2], 8.01 µM (active).
With `CCc1ccc(N2C(=O)c3sc4nnc(-c5ccccc5)c(=O)n4c3C2=O)cc1`, the 50% cytotoxic concentration (CC50) (usually the concentration that lowers cell viability or growth by half) in the assay on Vero was > 40 µM (active). At Genome polyprotein, the IC50 is 48.5 µM (active).
In the case of `Sc1nnc(-c2cc(-c3ccccc3)[nH]n2)n1/N=C/c1ccc(Br)s1`, the IC50 was 10.3 µM (active) at SUMO-activating enzyme [3]; > 100 µM (inactive) in assay [5]; 32.9 µM (active) at Prothrombin; 6.99 µM (active) at SUMO-activating enzyme [6]; 14.5 µM (active) in [7]; 7.25 µM (active) in assay [8]. Besides, in assay [9], the IC50 is > 66.6 µM (inactive). The concentration giving a half-maximal response (EC50) (commonly the midpoint of the concentration-response curve) in assay [4] was 14.6 µM (active); on Streptokinase A, > 150 µM (not active); in the assay with Streptococcus it was > 150 µM (not active).
With `CCOC(=O)c1c(C)[nH]c(C(=O)N/N=C\c2ccccc2O)c1C`, the AC50 in the assay on INS1 is 1.69 µM (active); in assay [11], 3.54 µM (active); with HEK293, 4.91 µM (active); in assay [17], 14.6 µM (active). Besides, the EC50 was 41.9 µM (active) in the assay “cells [10]”; 8.44 µM (active) in assay [13]; > 120 µM (not active) in assay [14]; > 120 µM (not active) in assay [15]; 6.77 µM (active) in “cells [18]”. For the same compound, the IC50 in assay [12] was 2.25 µM (active); in assay [16], 1.99 µM (active).
Consider `O=c1c(O)c(-c2ccc(O)cc2)oc2cc(O)cc(O)c12` [KAEMPFEROL], for which the AC50 on Cytochrome P450 2C9 was 0.00126 µM (inconclusive); in assay [19], 1.26 µM (active); in assay [20], 44.7 µM (inconclusive) and 56.2 µM (inconclusive); at Cytochrome P450 2C19 [22], 6.31 µM (inconclusive); at Cytochrome P450 2C19 [24], 10 µM (inconclusive); in assay [25], 0.0022 µM (inconclusive). Further, the IC50 in [21] is 44.5 µM (active); in assay [23] it was 9.93 µM (active).
